Earlier results on twelve compounds are cited in US7815920B2, “Method of preparing an antigen-containing formulation” (Allergy Therapeutics (UK) Ltd, priority 1998, dated 2010).

For this data set the following is noted: for Water Solubility: at 25° C.

Regarding `C[C@H](N)C(=O)O` [alanine], the “Water Solubility” value is on record as 16.7 g/100 ml H2O. Regarding `NC(=O)C[C@H](N)C(=O)O` [asparagine], the “Water Solubility” value is given as 3.5 g/100 ml H2O. Consider `N[C@@H](CS)C(=O)O` [cysteine], for which the “solubility in water (in words)” value is “quite soluble in water” and the “Water Solubility” value was “very”.

Consider `NC(=O)CC[C@H](N)C(=O)O` [glutamine], for which the “Water Solubility” value was 3.7 g/100 ml H2O. Consider `N[C@@H](Cc1c[nH]cn1)C(=O)O` [histidine], for which the “Water Solubility” value is listed as 4.2 g/100 ml H2O. `CC[C@H](C)[C@H](N)C(=O)O` [isoleucine]: the “Water Solubility” value is reported as 4.1 g/100 ml H2O. For `CC(C)C[C@H](N)C(=O)O` [leucine], the “Water Solubility” value is on record as 2.4 g/100 ml H2O.

As to `NCCCC[C@H](N)C(=O)O` [lysine], the “solubility in water (in words)” value was “quite soluble in water” and the “Water Solubility” value is reported as “very”.

For `CSCC[C@H](N)C(=O)O` [methionine], the “Water Solubility” value was 3.4 g/100 ml H2O. As for `N[C@@H](Cc1ccccc1)C(=O)O` [phenylalanine], the “Water Solubility” value is reported as 3.0 g/100 ml H2O. Regarding `N[C@@H](Cc1c[nH]c2ccccc12)C(=O)O` [tryptophan], the “Water Solubility” value is given as 1.1 g/100 ml H2O. On to `CC(C)[C@H](N)C(=O)O` [valine], for which the “Water Solubility” value is listed as 8.9 g/100 ml H2O.
